Assay results reported in patent publication US20090011103A1, “Composition comprising polyphenol” (Conopco, Inc. d/b/a Unilever, priority 2007, published 2009).

Legend:
[1] = tested on: mesenteric resistance arteries of SHR; experiment: Reactivity of isolated arteries: dilator effect during contraction induced by 40 mmol/L K+; design: species or system Spontaneously Hypertensive Rats (SHR)
Method: Segments of 2nd order mesenteric artery side branches were isolated from 14 weeks old male Spontaneously Hypertensive Rats (SHR). Two stainless-steel wires (diameter 40 μm) were inserted in the lumen of the arterial segments, which were then mounted in organ chambers between an isometric force transducer and a displacement device (Danish Myotechnology by J. P. Trading, Denmark). The organ chambers were filled with Krebs-Ringer bicarbonate solution which was maintained at 37° C. and continuously aerated with 95% O2 and 5% CO2. Before the actual experiments started, arterial segments were stretched to their individual optimal lumen diameter for mechanical performance, i.e. the diameter at which maximal contractile responses to noradrenaline (10 μmol/L) were obtained. In each experiment four second order mesenteric resistance arterial segments from one animal were mounted in individual organ chambers and studied in parallel. […]
For the analysis of the acute effects of the mixtures on K+-induced contraction, increasing concentrations of the mixtures (0.1-100 umol/L) were administered on top of the stable contractions and were left in contact with the arterial segments for 5-7 min to make sure that either no effect or a stable effect was reached. […] In this way, the effects of different exposure times to the mixtures (7, 30 and 90 min) on K+-induced contraction, could be evaluated. […]
Active wall tension (AWT) was calculated by subtracting the resting wall tension.
All contractile responses (AWT in the presence of stimuli, solvent and mixes of ingredients) were next expressed as a percentage of the contractile response (AWT) to 10 uM noradrenaline at the end of the normalisation period, i.e. before exposure of the arterial segments to solvent or mixes of ingredients.
Effects of increasing concentrations of the solvent and of the mixes (0.1 to 100 umol/L) during contractile responses to 40 mmol/L K+, were calculated as % change of the level of pre-contraction. […]

[2] = meeting abstract of Experimental biology 2007; read-out: vasorelaxing properties, 50% dose; cited from earlier work

O=C(O)C=Cc1ccc(O)cc1 [p-coumaric acid, 3-(4-hydroxyphenyl)-2-prepenoic acid]
influence on the dilation of the arteries ([1]; at a low concentration, by comparing the effect of different mixtures): significant influence on the dilation of the arteries
EC50 ([1]; isolated SHR mesenteric arteries, K+ (40 mmol/L) pre-contraction, deduced by comparing different mixtures (Plackett-Burman design), corrected for solvent, read-out: EC50 of dilation of the arteries): 7.5 µM
concentration at which maximum dilatation was obtained ([1]; isolated SHR mesenteric arteries, K+ (40 mmol/L) pre-contraction, mixtures 0.1-100 umol/L): 100 µM
EC50 [2]: 30 nM
